Patent EP0409528A2, “Platinum triamine antitumor agents containing substituted anilines” (ENGELHARD CORPORATION, priority 1989, dated 1991)
Several values for one entry are separate records, joined by “and”; a condition that tells them apart may be missing. Identical values can stand only once.

Key:
[1] = test system: Sarcoma 180a; assay: Sarcoma 180 ascites (S180a) antitumor screening; type: in vivo, female CFW mice; conditions: for %ILS: single ip on day 1, in water; for %ILS / activity against Sarcoma 180a: ILS > 50% indicates activity; for Surv: survivors per group of 6 mice; for maximum ILS: Sarcoma 180a, at 20 mg/kg; for maximum ILS / activity against Sarcoma 180a: single ip administration on Day 1; for activity against Sarcoma 180a: result in words
Description: (§1) All of the compounds of the Examples were tested against Sarcoma 180a in female CFW mice via single ip administration on Day 1. Two of the compounds were active in this system: cis -[Pt(NH3)2(4-iodoaniline)CI]N03 (maximum ILS = 81% at 20 mg/kg) and cis -[Pt(NH3)2(3-iodoaniline)Cl]NO3 (maximum ILS = 83% at 20 mg/kg). The remaining compounds were not active. cis -[Pt(NH3)2(4-iodoaniline)Cl]NO3 was also tested against L1210 leukemia in female CDF1 mice via single ip administration on Day 1.
Female CFW mice (18-25g) were implanted with 2 x 10^6 cells ip on day zero. Compounds were administered in 0.5 mL of water ip on day one. Groups of 6 mice were used for each test dose as well as controls as defined above. The test was run for twice the MST of the control group, with survivors counted as dying on that day. An ILS of > 50% indicates activity. The tumor line was maintained through weekly transfer of 4 x 10^6 cells in CFW mice.

[2] = test system: L1210 leukemia; assay: L1210 antitumor screening; type: in vivo, female CDF1 mice
Description: as §1
L1210 screening was conducted according to a published method. See Rose, et al, Cancer Treat. Repts ., 1982 , 66 , 135, which is incorporated herein by reference. Female CDF, mice (16-22g) were implanted with 1 x 10^6 tumor cells ip on day zero. Compounds were administered in 0.5 mL of water ip on day one. Groups of 6 mice were used for each dose. A control group of mice received only tumor and 0.5 mL of water. A positive control group received tumor and 8 mg/kg cisplatin in 0.5 mL of 0.15 M NaCI. The test was terminated after three times the mean survival time (MST) of the control group. Surviving mice were counted as dying on that day. Activity was determined based on the percent increase in MST of test mice over controls (%ILS). An ILS of > 25% represents activity. The tumor line was maintained through weekly transfer of 5 x 10^4 cells in DBA/2 mice.

[3] = S180a, dose 1.25 mg/kg ip day 1

## N.N.Nc1ccc(Cl)cc1.O=[N+]([O-])[O-].[Cl][Pt+] [cis-[Pt(NH3)2(4-chloroaniline)Cl]NO3]
[1]; S180a, dose 1.25 mg/kg
  %ILS: 3%
[1]; S180a, dose 2.5 mg/kg
  %ILS: 9%
[1]; S180a, dose 5 mg/kg
  %ILS: 40%
[1]; S180a, dose 10 mg/kg
  %ILS: 44%
[1]; S180a, dose 20 mg/kg
  %ILS: -51%
[1]; S180a, dose 40 mg/kg
  %ILS: -77%
[1]; [3]
  Surv: 0/6
[1]; S180a, dose 2.5 mg/kg ip day 1
  Surv: 0/6
[1]; S180a, dose 5 mg/kg ip day 1
  Surv: 0/6
[1]; S180a, dose 10 mg/kg ip day 1
  Surv: 0/6
[1]; S180a, dose 20 mg/kg ip day 1
  Surv: 0/6
[1]; S180a, dose 40 mg/kg ip day 1
  Surv: 0/6

## N.N.Nc1ccc(F)cc1.O=[N+]([O-])[O-].[Cl-].[Pt+2] [cis-[Pt(NH3)2(4-fluoroaniline)Cl]NO3, cis-[Pt(NH3)2(4-fluoraniline)Cl]NO3]
[1]; S180a, dose 1.25 mg/kg
  %ILS: 6%
[1]; S180a, dose 2.5 mg/kg
  %ILS: 14%
[1]; S180a, dose 5 mg/kg
  %ILS: 27%
[1]; S180a, dose 10 mg/kg
  %ILS: 45%
[1]; S180a, dose 20 mg/kg
  %ILS: -48%
[1]; S180a, dose 40 mg/kg
  %ILS: -77%
[1]; [3]
  Surv: 0/6
[1]; S180a, dose 2.5 mg/kg ip day 1
  Surv: 0/6
[1]; S180a, dose 5 mg/kg ip day 1
  Surv: 0/6
[1]; S180a, dose 10 mg/kg ip day 1
  Surv: 0/6
[1]; S180a, dose 20 mg/kg ip day 1
  Surv: 1/6
[1]; S180a, dose 40 mg/kg ip day 1
  Surv: 0/6

## N.N.Nc1ccc(Br)cc1.O=[N+]([O-])[O-].[Cl][Pt+] [cis-[Pt(NH3)2(4-bromoaniline)Cl]NO3]
[1]; S180a, dose 1.25 mg/kg
  %ILS: 2%
[1]; S180a, dose 2.5 mg/kg
  %ILS: 7%
[1]; S180a, dose 5 mg/kg
  %ILS: 38%
[1]; S180a, dose 10 mg/kg
  %ILS: 44%
[1]; S180a, dose 20 mg/kg
  %ILS: -14%
[1]; S180a, dose 40 mg/kg
  %ILS: -74%
[1]; [3]
  Surv: 0/6
[1]; S180a, dose 2.5 mg/kg ip day 1
  Surv: 0/6
[1]; S180a, dose 5 mg/kg ip day 1
  Surv: 0/6
[1]; S180a, dose 10 mg/kg ip day 1
  Surv: 1/6
[1]; S180a, dose 20 mg/kg ip day 1
  Surv: 2/6
[1]; S180a, dose 40 mg/kg ip day 1
  Surv: 0/6

## N.N.Nc1ccc(I)cc1.O=[N+]([O-])[O-].[Cl-].[Pt+2] [cis-[Pt(NH3)2(4-iodoaniline)Cl]NO3, cis-(Pt(NH3)2(4-iodoaniline)Cl]NO3]
[2]; L1210, dose 1.25 mg/kg, single ip on day 1, ILS > 25% represents activity
  %ILS: 14%
[2]; L1210, survivors per group of 6 mice, dose 1.25 mg/kg ip day 1
  Surv: 0/6
[2]; L1210 leukemia, at 10 mg/kg, single ip administration on Day 1
  maximum ILS: 37%
[2]; result in words, single ip administration on Day 1, ILS > 25% represents activity
  activity against L1210 leukemia: moderate level of activity
[1]; S180a, dose 0.63 mg/kg
  %ILS: 12%
[1]; S180a, dose 1.25 mg/kg
  %ILS: -1%
[1]; S180a, dose 2.5 mg/kg
  %ILS: 22%
[1]; S180a, dose 5 mg/kg
  %ILS: 38%
[1]; S180a, dose 10 mg/kg
  %ILS: 39%
[1]; S180a, dose 20 mg/kg
  %ILS: 81%
[1]; S180a, dose 0.63 mg/kg ip day 1
  Surv: 0/6
[1]; [3]
  Surv: 0/6
[1]; S180a, dose 2.5 mg/kg ip day 1
  Surv: 0/6
[1]; S180a, dose 5 mg/kg ip day 1
  Surv: 0/6
[1]; S180a, dose 10 mg/kg ip day 1
  Surv: 0/6
[1]; S180a, dose 20 mg/kg ip day 1
  Surv: 2/6
[1]
  maximum ILS: 81%
  activity against Sarcoma 180a: active

## [NH2][Pt]([NH2])([Cl])[Cl] [Positive Control, cisplatin, reference compound]
[2]; L1210, positive control group: 8 mg/kg cisplatin in 0.15 M NaCl ip day 1, survivors per 6 mice
  Positive Control SURV: 5/6
[2]; L1210, positive control group: 8 mg/kg cisplatin in 0.5 mL of 0.15 M NaCl ip day 1
  Positive Control %ILS: 190%
[1]; S180a, positive control group: 8 mg/kg cisplatin in 0.15 M NaCl ip day 1, survivors per 6 mice
  Positive Control SURV: 4/6 and 5/6 and 6/6
[1]; S180a, positive control group: 8 mg/kg cisplatin in 0.5 mL of 0.15 M NaCl ip day 1
  Positive Control %ILS: 92% and 95% and 98%

## N.N.Nc1cccc(I)c1.O=[N+]([O-])[O-].[Cl-].[Pt+2] [cis-[Pt(NH3)2(3-iodoaniline)Cl]NO3]
[1]; S180a, dose 1.25 mg/kg
  %ILS: -3%
[1]; S180a, dose 2.5 mg/kg
  %ILS: 9%
[1]; S180a, dose 5 mg/kg
  %ILS: 23%
[1]; S180a, dose 10 mg/kg
  %ILS: 51%
[1]; S180a, dose 20 mg/kg
  %ILS: 83%
[1]; S180a, dose 40 mg/kg
  %ILS: 66%
[1]; [3]
  Surv: 0/6
[1]; S180a, dose 2.5 mg/kg ip day 1
  Surv: 0/6
[1]; S180a, dose 5 mg/kg ip day 1
  Surv: 0/6
[1]; S180a, dose 10 mg/kg ip day 1
  Surv: 1/6
[1]; S180a, dose 20 mg/kg ip day 1
  Surv: 2/6
[1]; S180a, dose 40 mg/kg ip day 1
  Surv: 4/6
[1]
  maximum ILS: 83%
  activity against Sarcoma 180a: active
